The source of these data is patent publication US20130196865A1, “METHOD FOR SELECTING AN IPS CELL” (THE GENERAL HOSPITAL CORPORATION, priority 2010, published 2013).

Data set [1] concerns Meg3/Gtl2 expression in Gtl2^off iPSC clone #45 subclones. Description: Valproic acid treatment of Gtl2off iPSC subclones, Meg3/Gtl2 expression by qPCR. The format is cell-based, mouse. On the procedure:
(§1) cDNA was produced with the First Strand cDNA Synthesis Kit (Roche) using 1 μg of total RNA input. Real-time quantitative PCR reactions were set up in triplicate using 5 μl of cDNA (1:100 dilution) with the Brilliant II SYBR Green QPCR Master Mix (Stratagene) and run on a Mx3000P QPCR System (Stratagene).
In general terms: Real-time PCR tracks product formation cycle by cycle.

The subject of data set [2] is chromatin marks at the Gtl2 promoter. Kind of data set: Chromatin immunoprecipitation at the Meg3/Gtl2 locus after VA rescue. The data set is classed as cell-based, mouse. Conditions: VA-rescued clone. On the procedure:
20 million iPSCs, ESCs or MEFs were fixed with 1% formaldehyde for 10 minutes at room temperature (RT) and then lysed in 1 ml lysis buffer (50 mM Tris-HCl, pH 8.0, 10 mM EDTA, 1% SDS, protease inhibitors) for 20 minutes on ice. The lysate was split into three tubes and sonicated using Bioruptor for five times five minutes at high intensity, 30 sec on-30 sec off. After 10 minutes centrifugation, the supernatant was precleared for 1 hour at 4° C. with agarose beads preblocked with BSA (1 mg BSA for 10 ml beads) in IP Buffer (50 mMM Tris-HCl, pH8, 150 mM NaCl, 2 mM EDTA, 1% NP-40, 0.5% Sodium Deoxycholate, 0.1% SDS, protease inhibitors). […] of precleared chromatin per reaction diluted in 1 ml IP Buffer in presence of 2 ug antibody were used for each immunoprecipitation reaction according to manufacturer's protocol. The antibodies used for this study were: anti-aCH3 (06-5 99 Millipore), anti-acH4 (06-866, Millipore), anti-dimethyl K4 of H3 (07-030, Millipore), anti-trimethyl K27 of H3 (ab6002, Abcam) and normal rabbit IgG (Millipore). The precipitate was purified using Qiaquick PCR purification kit and was analyzed by qPCR using Brilliant II SYBR Green qPCR Master Mix (600828, Agilent Technologies) using the sequence specific primer sets. Gtl2: 5′-[…]-3′ (FWD) and 5′-[…]3′ (REV) and Pou5f1: 5′-[…]-3′ (FWD) and 5′-[…]-3′ (REV).

In data set [3] the test system is development of all-iPSC embryos/pups. Kind of data set: 4n blastocyst injection of VA-rescued iPSC clone. The data set is classed as in vivo, mouse. On the procedure: 2n and 4n blastocyst injections were performed as described before (Eggan, K et al., PNAS USA 98(11):6209 (2001)). Briefly, female BDF1 mice were super-ovulated by intraperitoneal injection of PMS and hCG and mated to BDF1 stud males. Zygotes were isolated from females with a vaginal plug 24 hour after hCG injection. Zygotes for 2n injections were in vitro cultured for 3 days in vitro in KSOM media, blastocysts were identified, injected with ESCs or iPSCs and transferred into pseudopregnant recipient females. For 4n injections, zygotes were cultured overnight until they reached the 2-cell stage, at which point they were electrofused.

Data set [4] deals with Dlk1-Dio3 locus (IG-DMR) methylation in iPSCs. Kind of data set: Derivation of iPS cells in the presence of ascorbic acid, DNA methylation at the Dlk1-Dio3 locus. The format is cell-based, mouse. On the procedure: These are 1) repression of an enzyme called Dnmt3a or 2) addition of ascorbic acid (Vitamin C) to do cell culture media during reprogramming (FIG. 15).
MEFs with a doxycycline-inducible polycistronic reprogramming cassette in their genome (Stadtfeld, M. et al. A reprogrammable mouse strain from gene-targeted embryonic stem cells. Nature methods 7(1):53-5) were reprogrammed into iPS cells by culture in either doxycycline-containing ESC media or doxycycline-containing ESC media with 50 ng/μl ascorbic acid (Sigma A4544). Doxycline was withdrawn after 10-14 days of culture and emerging iPS cell colonies picked and expanded in regular ESC culture media (without doxycycline, without ascorbic acid). Pluripotency of established iPS cell clones was confirmed by marker gene expression and blastocyst injections.
Genomic DNA was isolated using the DNeasy Blood and Tissue Kit (Qiagen) and bisulfite converted using the EpiTect Bisulfite Kit (Qiagen) with 100-1000 ng input. Converted DNA was used for PCR to amplify the regulatory IG-DMR region and PCR products were sequenced using the Pyrosequencing PSQ96 HS System (Biotage AB) (Stadtfeld, M. et al. Aberrant silencing of imprinted genes on chromosome 12qF1 in mouse induced pluripotent stem cells).

In data set [5] the test system is Gtl2^off and Gtl2^on iPSCs, ESCs. Kind of data set: Retinoic acid in vitro differentiation of iPSCs and ESCs, qPCR. The format is cell-based, mouse. The note with it: for Meg3/Gtl2 and Rian expression during differentiation: RA 5 days. On the procedure: To assess if silencing of Meg3/Gtl2 might be resolved during differentiation, Gtl2^off and Gtl2^on iPSCs as well as ESCs were exposed to the differentiation-stimulating agent retinoic acid (RA) for 5 days. […] The expression of imprinted genes outside of chromosome 12qF1 was not affected (FIG. 3f, bottom, and FIG. 10)
as §1

With `CCCC(CCC)C(=O)O` [valproic acid], the “subclones exhibiting increased Meg3/Gtl2 expression” value in data set [1] (Gtl2^off iPSC subclones treated with VA) is reported as “two out of 21”. Moreover, the “Meg3/Gtl2 expression level of rescued clone” value in data set [1] (one VA-treated iPSC clone, versus ESCs) is “comparable to ESCs”. Also, in data set [2], the “activation-associated chromatin marks at the Meg3/Gtl2 locus” value is “re-appearance of H3K4 methylation and H3 acetylation”. Moreover, the “full-term development after 4n blastocyst injection” value in data set [3] (VA-rescued clone, not seen with parental iPSCs) is “supported the development of several full-term pups”. In addition, the “phenotype of full-term pups” value in data set [3] (pups from VA-rescued clone) was “severely overgrown, however, and hence non-viable”.

For the compound `O=C1O[C@H]([C@@H](O)CO)C(O)=C1O` [ascorbic acid], the “abnormal methylation in iPSCs” value in data set [4] (FIG. 15b) is reported as “prevents abnormal methylation”. Also, the “frequency of "normal iPSCs"” value in data set [4] (ascorbic acid added to culture media during reprogramming) is reported as “dramatically increased”.

In the case of `CC1=C(/C=C/C(C)=C/C=C/C(C)=C/C(=O)O)C(C)(C)CCC1` [retinoic acid, all-trans retinoic acid], the “Meg3/Gtl2 and Rian expression during differentiation” value in data set [5] (Gtl2^off iPSCs) was “stable silencing”; in data set [5] (Gtl2^on iPSCs and ESCs) it was “readily upregulated”. In addition, in data set [5] (Gtl2^off iPSCs, RA treated), the “Dlk1 expression upon differentiation” value is listed as “express high levels”. For the same compound, the Pou5f1 expression entry in data set [5] (all RA-treated clones, 5 days) is given as “downregulation of Pou5f1”.
